Test results taken from ChEMBL document CHEMBL5120757, “Strategies Targeting Protein Tyrosine Phosphatase SHP2 for Cancer Therapy” (J Med Chem, 2022).
Blank lines part the entries; values can stand above or below the molecule they belong to.

What was measured:
[1] = target: T1, Tyrosine-protein phosphatase non-receptor type 11 (Homo sapiens, UniProt Q06124); experiment: Inhibition of SHP2 (unknown origin)
T1 sequence (Q06124 whole entry): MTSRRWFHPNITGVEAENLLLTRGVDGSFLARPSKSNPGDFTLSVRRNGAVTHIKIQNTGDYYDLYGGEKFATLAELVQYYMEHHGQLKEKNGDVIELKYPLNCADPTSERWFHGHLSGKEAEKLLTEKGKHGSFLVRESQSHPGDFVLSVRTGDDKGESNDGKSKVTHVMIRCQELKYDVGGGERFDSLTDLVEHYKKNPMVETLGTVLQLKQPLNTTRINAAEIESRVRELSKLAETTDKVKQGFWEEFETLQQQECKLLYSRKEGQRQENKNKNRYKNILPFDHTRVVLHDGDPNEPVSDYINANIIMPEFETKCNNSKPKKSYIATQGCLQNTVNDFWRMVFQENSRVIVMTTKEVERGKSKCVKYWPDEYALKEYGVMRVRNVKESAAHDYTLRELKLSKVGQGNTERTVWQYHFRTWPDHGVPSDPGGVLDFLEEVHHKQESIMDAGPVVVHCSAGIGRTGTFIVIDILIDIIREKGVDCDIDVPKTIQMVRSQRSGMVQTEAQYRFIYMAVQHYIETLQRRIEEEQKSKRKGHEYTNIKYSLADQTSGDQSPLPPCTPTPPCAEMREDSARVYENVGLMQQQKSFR

[2] = target: T1, Tyrosine-protein phosphatase non-receptor type 11; experiment: Degradation of wildtype SHP2 in human MV411 cells; format: cell-based; conditions: mv4-11
[3] = target: Tyrosine-protein phosphatase non-receptor type 11 (Homo sapiens, UniProt Q06124, F285S); experiment: Inhibition of SHP2 F285S mutant (unknown origin) using DiFMUP as substrate incubated for 1 hr followed by substrate addition measured after 30 mins by plate reader method
[4] = target: T1, Tyrosine-protein phosphatase non-receptor type 11; experiment: Inhibition of wildtype SHP2 (unknown origin)

Chain of Tyrosine-protein phosphatase non-receptor type 11 (Homo sapiens, UniProt Q06124, F285S) (Q06124 2-593 F285S limits assumed): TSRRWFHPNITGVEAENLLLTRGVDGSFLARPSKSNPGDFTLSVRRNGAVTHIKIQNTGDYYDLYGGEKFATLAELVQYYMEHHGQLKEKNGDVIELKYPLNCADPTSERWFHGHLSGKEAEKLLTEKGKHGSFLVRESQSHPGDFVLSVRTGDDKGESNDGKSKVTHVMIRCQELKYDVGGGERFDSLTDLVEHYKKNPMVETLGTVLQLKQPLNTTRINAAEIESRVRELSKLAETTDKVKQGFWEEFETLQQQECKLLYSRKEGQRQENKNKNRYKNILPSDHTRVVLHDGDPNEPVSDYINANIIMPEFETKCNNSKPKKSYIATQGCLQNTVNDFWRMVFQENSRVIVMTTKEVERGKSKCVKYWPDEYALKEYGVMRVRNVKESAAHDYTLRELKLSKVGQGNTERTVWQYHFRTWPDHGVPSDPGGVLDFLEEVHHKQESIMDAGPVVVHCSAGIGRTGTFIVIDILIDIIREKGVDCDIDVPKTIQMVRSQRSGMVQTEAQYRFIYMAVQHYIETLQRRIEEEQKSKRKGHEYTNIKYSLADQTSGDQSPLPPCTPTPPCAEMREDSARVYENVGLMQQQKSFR

Structure (SMILES): COC(=O)c1cc(NC2=NC(=O)/C(=C/c3ccc(C)cc3)S2)ccc1O
IC50 [1]: 0.05 µM

Structure (SMILES): C=C/C(=C/C(=O)C[C@H](C)C[C@@H](C)CC[C@H](O)[C@H](C)C(=O)C[C@@H](O)[C@H](C)[C@@H](C)OC(=O)C[C@@H](O)/C(C(=O)O)=C(\C)C(=O)O)CC
IC50 [1]: 29 µM

Structure (SMILES): NC(=O)c1cc[n+](CC2=C(C(=O)O)N3C(=O)[C@@H](NC(=O)[C@@H](c4ccccc4)S(=O)(=O)O)[C@@H]3SC2)cc1
IC50 [1]: 16.8 µM

Structure (SMILES): O=C(O)c1cc(O)c(=O)c2c(O)c(O)ccc2c1 [7-DESHYDROXYPYROGALLIN-4-CARBOXYLIC ACID]
IC50 [1]: 2.1 µM

The remaining lines, values ahead:

DC50 [2]: 0.006 µM
Structure (SMILES): C[C@@H]1OCC2(CCN(c3cnc(Sc4cccc(NC(=O)CCC(=O)NCCCOCCOCCOCCCNc5cccc6c5C(=O)N(C5CCC(=O)NC5=O)C6=O)c4Cl)c(N)n3)CC2)[C@@H]1N (some centres not stated)

IC50 [3]: 0.0225 µM
Structure (SMILES): Cc1nc(N2CCC3(CC2)CO[C@@H](C)[C@H]3N)cnc1-c1ccc(OCCOCCOCCCOCCCOCCCOCCCOCCOCCNCC(=O)COc2cccc3c2C(=O)N(C2CCC(=O)NC2=O)C3=O)c(Cl)c1Cl (some centres not stated)

IC50 [4]: 0.714 µM
Structure (SMILES): CC1(NCc2cn(CCOCCOCCOCCOCCNc3cccc4c3C(=O)N(C3CCC(=O)NC3=O)C4=O)nn2)CCN(c2cnc(-c3cccc(Cl)c3Cl)c(N)n2)CC1 (configuration not stated)
